Source: patent US9688596B2, “Synthesis and biological activity of 2-methylene analogs of calcitriol and related compounds” (Wisconsin Alumni Research Foundation, priority 2015, dated 2017)
“Also recorded” adds a separate entry of the source.

Assays:
[1] = test system: 24-hydroxylase (CYP-24) promoter; assay: 24-hydroxylase transcription (luciferase reporter in rat osteosarcoma cells); type: cell-based; settings: for 24OHase transcription ED50 Ratio: average ratio of the 1α,25-(OH)2D3 ED50 to the ED50 for the analogue, luciferase activity; for transcriptional potency (in words): compared with 1α,25-(OH)2D3 (1)
Source text: The activity of the synthesized vitamins in inducing transcription of vitamin D target gene was examined using the 24-hydroxylase (CYP-24) promoter.

[2] = test system: human promyelocytic HL-60 cells; assay: HL-60 differentiation (NBT reduction); type: cell-based; settings: for HL-60 differentiation ED50 Ratio: average ratio of the 1α,25-(OH)2D3 ED50 to the ED50 for the analogue, 50% maturation, NBT reduction; for ability to elicit differentiation of HL-60 cells into monocytes (in words): comparator (2MD)
[3] = biological target: T1, full-length recombinant rat vitamin D receptor (Rattus norvegicus, UniProt P13053); assay: Competitive binding to the vitamin D receptor; settings: for VDR Binding Ki Ratio: average ratio of the 1α,25-(OH)2D3 Ki to the Ki for the analogue, radiolabeled 1α,25-(OH)2D3 at 1 nM, Kd 0.2 nM; for VDR binding ability (in words): comparator (1 or 3)
T1 sequence (P13053 1-423): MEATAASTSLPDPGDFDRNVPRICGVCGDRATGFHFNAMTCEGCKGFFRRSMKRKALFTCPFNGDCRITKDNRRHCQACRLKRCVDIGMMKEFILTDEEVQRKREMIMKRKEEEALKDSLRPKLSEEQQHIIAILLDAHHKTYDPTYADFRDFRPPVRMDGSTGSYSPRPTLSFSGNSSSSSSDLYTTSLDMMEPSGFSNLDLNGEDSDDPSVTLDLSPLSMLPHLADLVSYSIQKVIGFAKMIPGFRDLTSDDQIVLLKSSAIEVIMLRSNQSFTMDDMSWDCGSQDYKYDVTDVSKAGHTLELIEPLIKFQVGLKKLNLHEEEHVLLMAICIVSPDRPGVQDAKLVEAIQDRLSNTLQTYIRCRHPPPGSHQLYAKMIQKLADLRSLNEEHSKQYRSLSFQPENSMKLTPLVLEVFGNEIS
Procedure: In the first competitive binding assay, the affinity of vitamins to the full-length recombinant rat receptor was evaluated and compared to 1α,25-(OH)2D3 (1) and 2MD (3).
The Ki values are derived from the dose-response curves and represent the inhibition constant when radiolabeled 1α,25-(OH)2D3 is present at 1 nM and a Kd of 0.2 nM is used. The numbers shown in the Table are expressed as the average ratio of the 1α,25-(OH)2D3 Ki to the Ki for the analogue. ^bInduction of differentiation of HL-60 promyelocytes to monocytes by 1α,25-(OH)2D3 (1) and the synthesized vitamin D analogues. Differentiation state was determined by measuring the percentage of cells reducing nitro blue tetrazolium (NBT). The experiment was repeated in duplicate two times. […] The numbers shown in the Table are expressed as the average ratio of the 1α,25-(OH)2D3 ED50 to the ED50 for the analogue. ^cTranscriptional assay in rat osteosarcoma cells stably transfected with a 24-hydroxylase gene reporter plasmid. […] The numbers shown in the Table are expressed as the average ratio of the 1α,25-(OH)2D3 ED50 to the ED50 for the analogue.

[4] = earlier work; cited from earlier work
bone formation = settings: cited from earlier work
[5] = clinical trial; cited from earlier work
[6] = compared with 1; cited from earlier work
[7] = ovariectomized (OVX) rat; cited from earlier work
[8] = cited from earlier work
[9] = Intestinal calcium transport (everted gut sac); type: in vivo, rat; settings: rats, four consecutive intraperitoneal doses
Procedure: (§1) Male, weanling Sprague-Dawley rats were purchased from Harlan (Indianapolis, Ind.). The animals were group housed and placed on Diet 11 (0.47% Ca)+AEK oil for one week followed by Diet 11 (0.02% Ca)+AEK oil for 3 weeks. The rats were then switched to a diet containing 0.47% Ca^xxiii for one week followed by two weeks on a diet containing 0.02% Ca. Dose administration began during the last week on 0.02% Ca diet. Four consecutive intraperitoneal doses were given approximately 24 hours apart. Twenty four hours after the last dose, blood was collected from the severed neck and the concentration of serum calcium determined as a measure of bone calcium mobilization. The first 10 cm of the intestine was also collected for the intestinal calcium transport analysis using the everted gut sac method.^25

[10] = Bone calcium mobilization (serum calcium); type: in vivo, rat; settings: rats, four consecutive intraperitoneal doses
Procedure: as §1

[11] = listed as 2-methylene calcitriol

Row | SMILES | 24OHase transcription ED50 Ratio [1] | HL-60 differentiation ED50 Ratio [2] | VDR Binding Ki Ratio [3] | calcemic potency / in vivo calcemic activity [4] | bone formation in vitro (bone formation) | bone turnover in postmenopausal women [5] | activity in the bone tissue higher than 1 [6] | bone formation in OVX rat model [7] | activity in the intestine compared with 1 [8] | intestinal calcium transport activity (in words) [9] | intestinal calcium transport activity (in words) [9, 11] | transcriptional potency (in words) [1] | VDR binding ability (in words) [3] | bone calcium mobilization / potency in raising serum calcium (in words) [10] | bone calcium mobilization / potency in raising serum calcium (in words) [10, 11] | transcriptional activity decreased compared with 3 (2MD) ([1]; compared with 3) | ability to elicit differentiation of HL-60 cells into monocytes (in words) [2] | affinity to the receptor, higher than natural hormone 1 ([3]; compared to 1α,25-(OH)2D3 (1))
1 | C=C1[C@H](O)CC(=C/C=C2\CCC[C@]3(C)[C@@H]([C@H](C)CCCC(C)(C)O)CC[C@@H]23)C[C@H]1O [Compound 2, reference compound] | 1 | 1 | 1 | significantly increased calcemic potency |  |  |  |  |  |  |  |  |  |  |  |  |  | 
2 | C=C1[C@H](O)CC(=C/C=C2\CCC[C@]3(C)[C@@H](C(C)CCCC(C)(C)O)CC[C@@H]23)C[C@H]1O (stereo partly drawn) [Compound 3, (20S)-1α,25-dihydroxy-2-methylene-19-nor vitamin D3] | 29 | 25 | 1 |  | strongly stimulate bone formation | increase bone turnover | ca. 30 times | strongly stimulate bone formation | similar |  |  |  |  |  |  |  |  | 
3 | C=C1/C(=C\C=C2/CCC[C@]3(C)[C@@H]([C@H](C)CCCC(C)(C)O)CC[C@@H]23)C[C@@H](O)C(=C)[C@@H]1O [Compound 8, 1α,25-dihydroxy-2-methylene-vitamin D3] | 1 | 0.7 | 1.4 |  |  |  |  |  |  | Much higher potency on intestine; also recorded: considerably higher potency; also recorded: more potent than 1 and 3 | more active in intestine | same transcriptional potency as 1α,25-(OH)2D3 (1) | almost as effectively as the natural hormone 1 | highest potency in raising serum calcium; also recorded: considerably higher potency | almost as active as 2MD in the bone |  |  | 
4 | C=C1/C(=C\C=C2/CCC[C@]3(C)[C@@H]([C@@H](C)CCCC(C)(C)O)CC[C@@H]23)C[C@@H](O)C(=C)[C@@H]1O [Compound 9, (20S)-1α,25-dihydroxy-2-methylene-vitamin D3] | 10 | 29 | 1.1 |  |  |  |  |  |  | Much higher potency on intestine; also recorded: more potent than 1 and 3 |  | most pronounced activity | almost identical | highest potency in raising serum calcium; also recorded: slightly lower than that of 3; also recorded: ca. one order of magnitude higher compared to calcitriol |  | three | highest ability to elicit cellular differentiation; also recorded: almost identical | 
5 | C=C1/C(=C\C=C2/CCC[C@]3(C)[C@@H]([C@H](C)CCCC(C)C)CC[C@@H]23)C[C@@H](O)C(=C)[C@@H]1O [Compound 10, 1α-hydroxy-2-methylene-vitamin D3] |  | 0.07 |  |  |  |  |  |  |  |  |  | decreased by one order of magnitude | decreased by two orders of magnitude | less active but still more calcemic than calcitriol; also recorded: Strong calcemic activity |  |  |  | 
6 | C=C1/C(=C\C=C2/CCC[C@]3(C)[C@@H]([C@@H](C)CCCC(C)C)CC[C@@H]23)C[C@@H](O)C(=C)[C@@H]1O [Compound 11, (20S)-1α-hydroxy-2-methylene-vitamin D3] |  | 0.7 |  |  |  |  |  |  |  |  |  | decreased by one order of magnitude | decreased by two orders of magnitude | less active but still more calcemic than calcitriol; also recorded: Strong calcemic activity |  |  |  | 
7 | C=C1/C(=C/C=C2\CCC[C@]3(C)[C@@H]([C@H](C)CCCC(C)(C)O)CC[C@@H]23)C[C@@H](O)C(=C)[C@@H]1O [Compound 12, (5E)-1α,25-dihydroxy-2-methylene-vitamin D3] | 1 | 0.4 | 2.5 |  |  |  |  |  |  |  |  | same transcriptional potency as 1α,25-(OH)2D3 (1) |  | significantly decreased activity in bone |  |  |  | 2.5 fold
8 | C=C1/C(=C/C=C2\CCC[C@]3(C)[C@@H]([C@@H](C)CCCC(C)(C)O)CC[C@@H]23)C[C@@H](O)C(=C)[C@@H]1O [Compound 13, (5E,20S)-1α,25-dihydroxy-2-methylene-vitamin D3] | 5 | 20 | 1.1 |  |  |  |  |  |  |  |  | most pronounced activity | almost identical | significantly decreased activity in bone |  |  | highest ability to elicit cellular differentiation; also recorded: almost identical | 
